ChEMBL document CHEMBL1201862, “PubChem BioAssay data set” (2004)
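The compound was tested at five concentrations on cells cultured in 96-well plates, with a 48-hour exposure period. Here, GI50 denotes the concentration required for 50% inhibition of growth.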 Active and inactive are the calls of the source. Cut-off read from the data, not from the text of the source: active = GI50 up to about 1.1 µM and inactive = higher. Where a SMILES comes first, the peptide text is derived from it. The star is where a group is joined. Cbz = O=C(OCc1ccccc1)*

Columns and labels:
Assay in all cases: NCI-60 cell line screen, 48 h
MCF7 = tested on: MCF7
NCI-H460 = tested on: NCI-H460
HOP-92 = tested on: HOP-92
COLO 205 = tested on: COLO 205
K562 = tested on: K562
KM12 = tested on: KM12
IGROV-1 = tested on: IGROV-1
TK-10 = tested on: TK-10
SF-268 = tested on: SF-268
SF-295 = tested on: SF-295
EKVX = tested on: EKVX
RXF 393 = tested on: RXF 393
HL-60 = tested on: HL-60
UO-31 = tested on: UO-31
SNB-75 = tested on: SNB-75
Hs-578T = tested on: Hs-578T
BT-549 = tested on: BT-549
A549 = tested on: A549
M14 = tested on: M14
SW-620 = tested on: SW-620

| SMILES | GI50 (MCF7) | GI50 (NCI-H460) | GI50 (HOP-92) | GI50 (COLO 205) | GI50 (K562) | GI50 (KM12) | GI50 (IGROV-1) | GI50 (TK-10) | GI50 (SF-268) | GI50 (SF-295) | GI50 (EKVX) | GI50 (RXF 393) | GI50 (HL-60) | GI50 (UO-31) | GI50 (SNB-75) | GI50 (Hs-578T) | GI50 (BT-549) | GI50 (A549) | GI50 (M14) | GI50 (SW-620) |
| --- | --- | --- | --- | --- | --- | --- | --- | --- | --- | --- | --- | --- | --- | --- | --- | --- | --- | --- | --- | --- |
| O=S(=O)([N-]c1nc2ccccc2nc1-[n+]1ccccc1)c1ccccc1 | > 100 µM (inactive) | > 100 µM (inactive) | > 100 µM (inactive) | > 100 µM (inactive) | 29.9 µM (inactive) | > 100 µM (inactive) | > 100 µM (inactive) | 71.4 µM (inactive) | > 100 µM (inactive) | > 100 µM (inactive) | > 100 µM (inactive) | > 100 µM (inactive) | 22.1 µM (inactive) | > 100 µM (inactive) | > 100 µM (inactive) | > 100 µM (inactive) | 20.8 µM (inactive) | > 100 µM (inactive) | > 100 µM (inactive) |  |
| Cn1c(-c2cccc([N+](=O)[O-])c2)[n+](C)c2ccccc21 | > 100 µM (inactive) | > 100 µM (inactive) | > 100 µM (inactive) | 17.7 µM (inactive) | > 100 µM (inactive) | > 100 µM (inactive) | 44.4 µM (inactive) | > 100 µM (inactive) | 87.7 µM (inactive) | > 100 µM (inactive) | > 100 µM (inactive) | > 100 µM (inactive) | 29.2 µM (inactive) | > 100 µM (inactive) | > 100 µM (inactive) | > 100 µM (inactive) | > 100 µM (inactive) | 46.9 µM (inactive) | > 100 µM (inactive) | > 100 µM (inactive) |
| Cc1ccc(-c2cc(-c3ccc(Cl)cc3)nc(/N=C3\C(=O)N(CN4CCOCC4)c4ccc(Cl)cc43)n2)cc1 | 17.5 µM (inactive) | 20.9 µM (inactive) | 17.9 µM (inactive) | 20.2 µM (inactive) | 10.5 µM (inactive) | 22.2 µM (inactive) | 13 µM (inactive) | 26.4 µM (inactive) | 22.6 µM (inactive) | 35.7 µM (inactive) | 15.2 µM (inactive) | 13.8 µM (inactive) | 11.6 µM (inactive) | 24.9 µM (inactive) | 29.9 µM (inactive) | 24.3 µM (inactive) | 21.8 µM (inactive) | 27.2 µM (inactive) | 26.4 µM (inactive) | 6.49 µM (inactive) |
| C=CC(=O)C#CC#CC/C=C\CCCCCCC | > 20.6 µM (inactive) | > 20.6 µM (inactive) | > 11.3 µM (inactive) | > 20.6 µM (inactive) | 6.82 µM (inactive) | > 20.6 µM (inactive) | > 6.52 µM (inactive) | > 20.6 µM (inactive) | > 20.6 µM (inactive) | > 20.6 µM (inactive) | > 20.6 µM (inactive) | > 11.3 µM (inactive) | 9.91 µM (inactive) | > 20.6 µM (inactive) | > 20.6 µM (inactive) | > 20.6 µM (inactive) | > 20.6 µM (inactive) | > 20.6 µM (inactive) | > 14.6 µM (inactive) | > 20.6 µM (inactive) |
| Oc1cc2c3c(c1)CCCN3CCC2 | > 10 µM (inactive) | > 10 µM (inactive) | > 10 µM (inactive) | > 10 µM (inactive) | > 10 µM (inactive) | > 10 µM (inactive) | > 10 µM (inactive) | > 10 µM (inactive) | > 10 µM (inactive) | > 10 µM (inactive) | > 10 µM (inactive) | > 10 µM (inactive) | > 10 µM (inactive) |  | > 10 µM (inactive) | > 10 µM (inactive) | > 10 µM (inactive) | > 10 µM (inactive) | > 10 µM (inactive) | > 10 µM (inactive) |
| CCC1NC(=O)C1NC(=O)OC (stereo not given) | > 100 µM (inactive) | > 100 µM (inactive) | > 100 µM (inactive) | > 100 µM (inactive) | > 100 µM (inactive) | > 100 µM (inactive) | > 100 µM (inactive) | > 100 µM (inactive) |  | > 100 µM (inactive) | > 100 µM (inactive) | > 100 µM (inactive) | > 100 µM (inactive) | > 100 µM (inactive) | > 100 µM (inactive) | > 100 µM (inactive) | > 100 µM (inactive) |  | > 100 µM (inactive) | > 100 µM (inactive) |
| O=c1cc(N2CCOCC2)[nH]c(=O)n1-c1cccc(Cl)c1 | > 100 µM (inactive) | > 100 µM (inactive) | > 100 µM (inactive) | > 100 µM (inactive) | > 100 µM (inactive) | > 100 µM (inactive) | > 100 µM (inactive) | > 100 µM (inactive) | > 100 µM (inactive) | > 100 µM (inactive) | > 100 µM (inactive) | > 100 µM (inactive) | > 100 µM (inactive) |  | > 100 µM (inactive) | > 100 µM (inactive) | > 100 µM (inactive) |  | > 100 µM (inactive) | > 100 µM (inactive) |
| CCC1CCC2C3CC=C4CC(OC(C)=O)C(N)CC4(C)C3CCC12C (stereo not given) | 6.41 µM (inactive) | 1.87 µM (inactive) | 5.02 µM (inactive) | 5.18 µM (inactive) | 2.05 µM (inactive) | 2.96 µM (inactive) | 6.4 µM (inactive) | 2.66 µM (inactive) | 2.71 µM (inactive) | 3.26 µM (inactive) | 4.62 µM (inactive) | 1.85 µM (inactive) | 2 µM (inactive) | 5.24 µM (inactive) | 1.89 µM (inactive) | 1.93 µM (inactive) | 4.93 µM (inactive) | 2.07 µM (inactive) | 1.82 µM (inactive) | 3.21 µM (inactive) |
| O=S1(=O)CS(=O)(=O)OCCO1 | 51.8 µM (inactive) | 12.9 µM (inactive) | 31.2 µM (inactive) | 46.6 µM (inactive) | 60 µM (inactive) | 51.4 µM (inactive) | 33.4 µM (inactive) | 82.8 µM (inactive) | 15.1 µM (inactive) | 13.2 µM (inactive) | 81.8 µM (inactive) | 41.6 µM (inactive) | 11.2 µM (inactive) | 61 µM (inactive) | 14 µM (inactive) | 54.3 µM (inactive) | 37.8 µM (inactive) | 46.1 µM (inactive) | 47.3 µM (inactive) | 40.9 µM (inactive) |
| C/C=C(\C)C(=O)OC1C(C)=C2C(C1OC(=O)CCCC)C(C)(OC(C)=O)CC(OC(=O)CCCC)C1(O)C2OC(=O)C1(C)O (stereo not given) | 0.394 µM (active) | 0.792 µM (active) | 0.746 µM (active) | 0.891 µM (active) | 2.2 µM (inactive) | 0.776 µM (active) | 6.85 µM (inactive) | 13 µM (inactive) |  | 0.802 µM (active) | 8.22 µM (inactive) | 0.598 µM (active) | 0.0324 µM (active) | 15.4 µM (inactive) | 0.828 µM (active) | 0.625 µM (active) | 8.71 µM (inactive) | 1.03 µM (active) | 0.452 µM (active) | 0.501 µM (active) |
| CCCCCCCCCCCCCCCCOP(=O)(O)OP(=O)(O)OCC1OC(n2ccc(N)nc2=O)CC1O (stereo not given) | > 100 µM (inactive) | > 100 µM (inactive) | > 100 µM (inactive) | > 100 µM (inactive) | > 100 µM (inactive) | > 100 µM (inactive) | > 100 µM (inactive) | > 100 µM (inactive) | > 100 µM (inactive) | > 100 µM (inactive) | > 100 µM (inactive) | > 100 µM (inactive) | > 100 µM (inactive) | > 100 µM (inactive) | > 100 µM (inactive) | > 100 µM (inactive) | > 100 µM (inactive) | > 100 µM (inactive) | > 100 µM (inactive) | > 100 µM (inactive) |
| O=Cc1ccc(-c2cccs2)s1 | 1.16 µM (inactive) | 33.5 µM (inactive) | 55.6 µM (inactive) | 42.3 µM (inactive) | 34.3 µM (inactive) | > 100 µM (inactive) | 12.6 µM (inactive) | 3.88 µM (inactive) | > 96.8 µM (inactive) | > 100 µM (inactive) | 79.4 µM (inactive) | 18.4 µM (inactive) | 49.3 µM (inactive) | 64 µM (inactive) | 76 µM (inactive) | 34.1 µM (inactive) | 51.3 µM (inactive) | 60 µM (inactive) | > 100 µM (inactive) | 72.4 µM (inactive) |
| O=C(NC1=C(Cl)C(=O)c2ccccc2C1=O)c1ccccc1 | 19.2 µM (inactive) | 40.3 µM (inactive) | 24.9 µM (inactive) | 15.5 µM (inactive) | 21.8 µM (inactive) | 32.1 µM (inactive) | 21.8 µM (inactive) | 23 µM (inactive) | 64.1 µM (inactive) | 36 µM (inactive) | > 100 µM (inactive) | 18.9 µM (inactive) | 34.8 µM (inactive) |  | 65 µM (inactive) | 69 µM (inactive) | 19.9 µM (inactive) | 52.5 µM (inactive) | 50.8 µM (inactive) | 17.3 µM (inactive) |
| CCOC(=O)C(CC(=O)OC)NC(=O)C(CC(=O)OC)NC(=O)C(CC(=O)OC)NC(=O)C(CC(=O)OC)NC(=O)OCc1ccccc1 (stereo not given) (Cbz-D(OMe)D(OMe)D(OMe)D(OMe)-OEt; configuration not given here) | > 100 µM (inactive) | > 100 µM (inactive) | > 100 µM (inactive) | > 100 µM (inactive) | > 100 µM (inactive) | > 100 µM (inactive) | > 100 µM (inactive) | > 100 µM (inactive) |  |  | > 100 µM (inactive) | > 100 µM (inactive) | > 100 µM (inactive) | > 100 µM (inactive) | > 100 µM (inactive) | > 100 µM (inactive) | > 100 µM (inactive) | > 100 µM (inactive) | > 100 µM (inactive) | > 100 µM (inactive) |
